Literature values as cited in patent US12667556B2, “Extended release injectable formulations comprising an isoxazoline active agent, methods and uses thereof” (BOEHRINGER INGELHEIM ANIMAL HEALTH USA INC., priority 2015, dated 2026).
Converted amounts (≈) assume the structure as drawn.

Tested on: fleas

Compound: O=C(CNC(=O)c1ccc(C2=NOC(c3cc(Cl)cc(C(F)(F)F)c3)(C(F)(F)F)C2)c2ccccc12)NCC(F)(F)F (centres unmarked) [compound (IIc), 4-[5-[3-chloro-5-(trifluoromethyl)phenyl]-4,5-dihydro-5-(trifluoromethyl)-3-isoxazolyl]-N-[2-oxo-2-[(2,2,2-trifluoroethyl)amino]ethyl]-1-naphthalenecarboxamide]
- EC90 (plasma concentration) against fleas on dogs (Letendre et al., Veterinary Parasitology 201 (2014) 190-197): 0.023 µg/mL (≈ 0.0367 µM)
- plasma concentration known to effectively control fleas on dogs (known, literature): about 20 ng/ml
